ChEMBL document CHEMBL3272289, “Amino acids. 1. alpha-Hydroxymethylphenylalanines” (1976)
The source made the active and inactive calls. The calls are words filed in the database; no cut-off is given here.

Assays:
Rattus norvegicus [1] = assay: Hypotensive effect in conscious spontaneously hypertensive rat assessed as reduction in blood pressure at 50 mg/kg, po administered as single dose; type: functional
Rattus norvegicus [2] = assay: Hypotensive effect in conscious spontaneously hypertensive rat assessed as reduction in blood pressure at 100 mg/kg, po administered as single dose; type: functional
Rattus norvegicus [3] = assay: Hypotensive effect in conscious spontaneously hypertensive rat assessed as reduction in blood pressure at 100 to 300 mg/kg, po; type: functional, organism-based

SMILES: C[C@](N)(Cc1ccc(O)c(O)c1)C(=O)O [METHYLDOPA]
- Activity (Rattus norvegicus [1]): 44 mmHg
- Activity (Rattus norvegicus [2]): 85 mmHg

SMILES: NC(CO)(Cc1ccc(O)cc1)C(=O)O (centres undefined)
- Activity (Rattus norvegicus [3]): inactive

SMILES: NC(CO)(Cc1ccc(O)c(O)c1)C(=O)O (centres undefined)
- Activity (Rattus norvegicus [3]): inactive
